Results from patent publication US9458123B2, “Methods, pharmaceutical compositions, therapeutic systems, and compounds for treating B cell malignancies” (University of Rochester, priority 2012, dated 2016).

What was measured:
Assay type in all cases: cell-based
[1] = test system: IκBα phosphorylation by RANKL in RAW264.7 cells; assay: IκBα phosphorylation after RANKL, western blot; details: RAW264.7, RANKL 15 ng/ml
Protocol: (§1) SUDHL-6, RAW264.7, and MEF cells were treated with NSC697923 or DMSO (control) for 1 hour before being stimulated with the PMA (100 ng/ml), RANKL (15 ng/ml), and LPS (1.5 μg/ml) for the indicated times. The levels of IκBα phosphorylation in the indicated samples were assessed by western blotting.

OCI-Ly7 cells = assay: Cell cycle distribution, PI and BrdU double staining; details: short time (5 hour) treatment
Protocol: (§2) The indicated ABC DLBCL cells were seeded at 3×10^5 cells/ml in 6-well plates and cultured in the presence of DMSO (0.2%, control) or various concentrations of NSC697923 for 24 hours. The live and dead cells were counted using the trypan blue exclusion assay. Shown are the means from three separate experiments. The average number of live cells in the control was set at 100. […] The levels of the indicated proteins were analyzed by western blotting. For caspase 3 detection, a mixture of an antibody for the uncleaved form and an antibody specific for the cleaved form was used. In FIG. 7C, OCI-Ly10 cells were treated as in FIG. 7A. The apoptotic cells (Annexin V positive cells) were measured by flow cytometry as described in Example 1 infra. A representative result from three independent experiments is depicted. […] BrdU was then added into the culture medium for 30 minutes before the cell-cycle distribution of the treated cells was analyzed as described in Example 1 infra. Shown are the averages from two independent experiments. […] BrdU was then added into the culture medium for 30 minutes before the cell-cycle distribution of the treated cells was analyzed as described in Example 1 infra. Shown are the averages from two independent experiments. […]

OCI-Ly10 cells = assay: as above; details: short time (5 hour) treatment
Protocol: as §2

[2] = test system: p53 signaling in OCI-Ly10 cells; assay: Nuclear p53 and p21 expression, western blot; details: 3.5 hours
Protocol: OCI-Ly10 cells were treated with indicated concentrations of NSC697923 for 3.5 hours. The level of p53 in the nuclear extract and the level of p21 in the whole cell lysates were analyzed by western blotting.

OCI-Ly7 = assay: Proliferation and survival of GCB DLBCL cells (trypan blue, annexin V); details: OCI-Ly7, 24 hours
Protocol: (§3) In FIG. 8A, the GCB DLBCL cells were plated at the indicated cell concentrations and treated with various concentrations of NSC697923 for 24 hours. The effects of NSC697923 on the growth of these cells were analyzed as described in FIG. 7A. In FIG. 8B, the cells were plated at a concentration of 4×10^5 cells/ml and treated with NSC697923 as in FIG. 8A, and the apoptotic cells were analyzed as described in FIG. 7C.
(§4) Apoptosis was assayed using the 7AAD/annexin V apoptosis kit (BD Bioscience) as previously described (Kim et al., “Protein Kinase C-Associated Kinase is Required for NF-kappaB Signaling and Survival in Diffuse Large B-Cell Lymphoma Cells,” Blood 111:1644-1653 (2008), which is hereby incorporated by reference in its entirety). Analysis of the cell cycle distribution of the treated cells was carried out with propidium iodide (PI) and BrdU double staining as previously described (DeRan et al., “Assessing G1-to-S-Phase Progression after Genotoxic Stress,” Methods Mol. Biol. 782:221-230 (2011) and Su et al., “DNA Damage Induces Downregulation of Histone Gene Expression Through the G1 Checkpoint Pathway,” EMBO. J. 23:1133-1143 (2004), each of which is hereby incorporated by reference in its entirety).

SUDHL-6 = assay: as above; details: SUDHL-6, 24 hours
Protocol: as §3, §4

[3] = test system: PMA-induced NF-κB activation in SUDHL-6 cells; assay: IκBα phosphorylation after PMA, western blot; details: SUDHL-6, PMA 100 ng/ml
Protocol: as §1

multiple myeloma cells = assay: Growth of multiple myeloma cells, trypan blue exclusion assay; details: 24 hours
Protocol: The indicated multiple myeloma cells were seeded at 300,000 cells/mL in 6-well plates and cultured in the presence of DMSO (0.2%, control) or various concentrations of NSC697923 for 24 hours. The live and dead cells were counted using the trypan blue exclusion assay. Shown are the means from 3 separate experiments. The average number of live cells in the control was set at 100.
It has been shown that multiple myeloma cells also depend on NF-kB signaling for survival. It was thus hypothesized that these cells may also sensitive to NSC697923 treatment. […] The indicated multiple myeloma cells were seeded at 300,000 cells/mL in 6-well plates and cultured in the presence of DMSO (0.2%, control) or various concentrations of NSC697923 for 24 hours. The live and dead cells were counted using the trypan blue exclusion assay. Shown are the means from 3 separate experiments. The average number of live cells in the control was set at 100.

primary DLBCL cells = assay: Apoptosis of primary DLBCL cells, annexin V; details: primary cells from two DLBCL patients, 24 hours
Protocol: The primary cancer cells, prepared from two DLBCL patients and grown in culture medium for seven days, were seeded at 4.5×10^5 cells/mL and treated with the indicated concentrations of NSC697923 for 24 hours. The apoptotic cells were analyzed as described in FIG. 7C. Shown are the averages from two independent experiments.
as §4

`Cc1ccc(S(=O)(=O)c2ccc([N+](=O)[O-])o2)cc1` [NSC697923, 2-nitro-5-tosylfuran] was tested, and the “IκBα phosphorylation by RANKL” value [1] was “inhibited”, the “cells in S phase” value (OCI-Ly7 cells) was “marked decrease of cells in S phase” and the “cells in S phase” value (OCI-Ly10 cells) was “marked decrease of cells in S phase”. The “nuclear level of p53 protein” value [2] was “increased”, the p21 expression [2] was “increased” and the proliferation and survival (OCI-Ly7) was “inhibited proliferation and survival”. The proliferation and survival (SUDHL-6) was “inhibited proliferation and survival”, the “PMA-induced NF-κB activation (IκBα phosphorylation)” value [3] was “inhibiting” and the “growth of multiple myeloma cells” value (multiple myeloma cells) was “inhibits the growth of multiple myeloma cells”. For the same compound, the “Annexin-positive (apoptotic) cells” value (primary DLBCL cells) was “increase in Annexinpositive (apoptotic) cells”.
